Measured values from PMC7571068, “Antiproliferative and Pro-Apoptotic Effect of Uvaol in Human Hepatocarcinoma HepG2 Cells by Affecting G0/G1 Cell Cycle Arrest, ROS Production and AKT/PI3K Signaling Pathway” (Molecules, 2020).
In brackets after ≈: the same amount, converted by molar mass.

Key:
[1] = test system: MDA-MB-231 (triple negative breast cancer); parameters: method as in PMID 21142067; details: MDA-MB-231, 10 and 100 µM; cited from earlier work
[2] = test system: p53, c-Myc, Bcl-2, SOD, HSP-60 and Bax proteins in HepG2 cells; assay: Western blot of protein expression; format: cell-based, human; details: HepG2, IC50, 24 h, normalized to actin
Protocol: (§1) Triplicates of three different populations of each cell line, WRL68 and HepG2, were seeded in 6-well plates with a density of 2.5 × 10^5 cells per well. […] For protein extraction, each sample was resuspended in 20 μL of RIPA buffer (150 mM NaCl, 1% Igepal, 0.5% deoxycholic acid, 0.1% SDS, 50 mM Tris HCl pH 7.5, 0.2 M PMSF, […] and Thermo Scientific® PierceTM inhibitor cocktail, Waltham, MA, USA), and held on ice for 15 min. They were centrifuged at 15,000× g for 10 min at 4 °C, the supernatant was collected and stored at −80 °C for further analysis. The quantification of the protein concentration was carried out through the Bradford method. The methodology used for Western blot analysis is described by Mokhtari et al.. Brie fly, the initial separation of the extracts was performed by a 12% polyacrylamide gel electrophoresis under denaturing conditions (SDS-PAGE). A standardized load of 30 μg of protein per well was used after denaturing the samples at 95 °C for 5 min and adding the loading buffer (0.25 mM Tris-HCl pH 6.8, 10% SDS, 1 M DTT and glycerol). The proteins were transferred, by the semi-dry transfer method, (60 mA per gel, 1 h) using the TransBlot Turbo system (BioRad®, Berkeley, CA, USA), to a PVDF membrane. The membranes were blocked with blocking buffer (TBS, 0.1% Tween-20 and 3% skimmed milk) for 1 h at room temperature, incubating with the specific primary antibodies against the proteins studied at 4 °C overnight. The primary antibodies (from Santa Cruz Biotechnology®, Dallas, TX, USA) were diluted in blocking buffer. The membranes were washed with TBS-T (TBS, 0.1% Tween-20) for 5 min three times under stirring, and incubated with the corresponding secondary antibody (from Sigma®, St. Louis, MO, USA) (Table 1) for 1 h at room temperature, repeating the previous washing process later. These secondary antibodies have the enzyme horseradish peroxidase (HRP) coupled, which allows chemiluminescence to be detected in the presence of the protein band due to its ability to oxidize the luminol solution (ECL-plus Western-blot detection system, GE Healthcare, Chicago, IL, USA). The reaction produced was captured inside a ChemiDoc Imaging System (Bio-Rad®, Berkely, CA, USA). The program used to analyze the images obtained was Image Lab Software (Bio-Rad®, for PC 6.1 version). The expression of each protein was normalized referring to actin levels and were represented based on the results obtained for the control situation (WRL68 line without treatment) as percentage of expression (%). The expression obtained in each protein was analyzed through the mentioned program in triplicate.

[3] = test system: p53, c-Myc, Bcl-2, SOD, HSP-60 and Bax proteins in WRL68 cells; assay: Western blot of protein expression; format: cell-based, human; details: WRL68, IC50, 24 h, normalized to actin
Protocol: as §1

MCF-7 line = test system: MCF-7 line; parameters: method as in PMID 21142067; details: MCF-7, 44.27 μg/mL, same phase = G0/G1; cited from earlier work
HepG2 cells [4] = assay: Muse cell cycle assay (flow cytometry); format: cell-based, human; details: HepG2, IC50, 24 h
Protocol: (§2) A total of 1.5 × 10^5 cells were seeded per well in 24-well plates for each cell line (quadruplicates for three different populations of each cell line). […] Negative control populations were incubated only with the appropriate culture medium. The samples were analyzed in the Muse^TM Cell Analyzer (Merck-Millipore®, Burlington, MA, USA). The method is based on the analysis of the cell cycle through the discrimination of three populations: cells in phase G0/G1, S or G2/M. For this, the Muse^TM Cell Cycle Kit purchased from Millipore (Billerica, MA, USA) was used following the specification of manufacturer.

WRL68 cells = assay: Muse cell cycle assay (flow cytometry); format: cell-based, human; details: WRL68, IC50, 24 h
Protocol: as §2

HepG2 cells [5] = assay: MTT cytotoxicity assay; format: cell-based, human; details: for IC20 / IC50 / IC80: Homo sapiens, mean ± SEM (n = 9)
Protocol: MTT assay was performed as described by Pérez-Jiménez et al.. Briefly, samples containing 200 µL cell suspension (1 × 10^4 cells/well) were cultured in 96 well plates, in triplicate of three populations of the both cell lines. Subsequent to adherence of the cells within 12 h of incubation, Uvaol was added to the wells at a concentration between 0–140 μg/mL and maintained during 24, 48 and 72 h. MTT was dissolved in the medium and added to the wells at a final concentration of 0.5 mg/mL. Following 2 h of incubation, the generated formazan was dissolved in DMSO. Absorbance was measured at 570 nm in a multiplate reader (Bio-tek®, Winooski, VT, USA). The concentrations that caused 20%, 50% and 80% of inhibition of cell viability (IC20, IC50 and IC80) were calculated following the formula: % […] = (A0 − AT)/A0·100, where A0 is the control absorbance (100% of cell viability) and AT is de absorbance of the incubated cells with the different concentrations of uvaol. OriginPro 8 (OriginLab Corporation, Northampton, MA, USA) was used to performance a dose-response analysis by the following formula: y=A1+ A2− A1/1+10^(Log x0−x)p
In which Logx0 is the center of the curve, p the slope, A1 the lower asymptote and A2 the upper asymptote in the adjustment model described.

lymphoma cells (U937) = test system: lymphoma cells (U937); parameters: method as in PMID 21142067; details: U937, 10 and 100 µM; cited from earlier work

## C[C@H]1[C@H](C)CC[C@]2(CO)CC[C@]3(C)C(=CC[C@@H]4[C@@]5(C)CC[C@H](O)C(C)(C)[C@@H]5CC[C@]43C)[C@H]12 [uvaol, urs-12-ene-3,28-diol]
[1]
  induction of apoptosis: did not show this effect
[2]
  Bax expression vs control: increased
  Bcl-2 expression vs control: decreased
  HSP-60 expression vs control: increased in both lines
  SOD expression vs control: remained unchanged
  c-Myc expression vs control: maintained
  p53 expression vs control: remained unchanged
[3]
  Bax expression vs control: did not produce changes
  Bcl-2 expression vs control: did not produce changes
  HSP-60 expression vs control: increased in both lines
  SOD expression vs control: increased
  c-Myc expression vs control: increase
  p53 expression vs control: increased
MCF-7 line
  cell cycle arrest: arrest in the same phase of the cycle
HepG2 cells [4]
  change in percentage of cells in G0/G1 phase vs control: statistically significant increase
  change in percentage of cells in G2/M phase vs control: equally significant reduction
  change in percentage of cells in S phase vs control: No differences were found
WRL68 cells
  change in percentage of cells in G0/G1 phase vs control: significant decrease
  change in percentage of cells in G2/M phase vs control: increase
  change in percentage of cells in S phase vs control: significant decrease
HepG2 cells [5]; 24 h IC50 WRL68 vs HepG2
  IC50 in control cells (WRL68) relative to tumor cells (HepG2): more than twice
HepG2 cells [5]; HepG2, 24 h exposure
  IC20: 8.2 ± 1.8 µg/mL (≈ 18.5 µM)
  IC50: 25.2 µg/mL (≈ 56.9 µM)
HepG2 cells [5]; HepG2, 48 h exposure
  IC20: 6.4 ± 0.4 µg/mL (≈ 14.5 µM)
  IC50: 20 ± 0.3 µg/mL (≈ 45.2 µM)
  IC80: 61.7 ± 5.3 µg/mL (≈ 139 µM)
HepG2 cells [5]; HepG2, 72 h exposure
  IC20: 4 ± 0.2 µg/mL (≈ 9.03 µM)
  IC50: 14.1 ± 1 µg/mL (≈ 31.8 µM)
  IC80: 39.2 ± 2.4 µg/mL (≈ 88.5 µM)
Lymphoma cells (U937)
  induction of apoptosis: induced apoptosis
